ChEMBL document CHEMBL1201862, “PubChem BioAssay data set” (2004)
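These data come from cells grown in 96-well plates and exposed to compound for 48 hours at five concentrations. GI50 is the concentration that inhibits growth by half.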 The source made the active and inactive calls. No stated cut-off is given here; in the data, active = GI50 up to about 1.1 µM and inactive = higher.

Tests used:
Assay in all cases: growth of human tumour cells (NCI), 48 h
[1] = test system: SW-620
[2] = test system: UO-31
[3] = test system: COLO 205
[4] = test system: OVCAR-8
[5] = test system: SK-MEL-28
[6] = test system: CCRF-CEM
[7] = test system: M14
[8] = test system: NCI-H226
[9] = test system: U-251
[10] = test system: SK-MEL-2
[11] = test system: NCI-H522
[12] = test system: HOP-92
[13] = test system: EKVX
[14] = test system: LXFL 529
[15] = test system: HCT-15
[16] = test system: NCI-H460
[17] = test system: MOLT-4
[18] = test system: LOX IMVI
[19] = test system: MCF7
[20] = test system: NCI/ADR-RES

Compound	GI50 [1]	GI50 [2]	GI50 [3]	GI50 [4]	GI50 [5]	GI50 [6]	GI50 [7]	GI50 [8]	GI50 [9]	GI50 [10]	GI50 [11]	GI50 [12]	GI50 [13]	GI50 [14]	GI50 [15] [µM]	GI50 [16]	GI50 [17]	GI50 [18]	GI50 [19]	GI50 [20]
COc1ccc(NC(=O)NS(=O)(=O)c2ccc(C)cc2)nn1	> 100 µM (inactive)	> 100 µM (inactive)	> 100 µM (inactive)	> 100 µM (inactive)	> 100 µM (inactive)	> 100 µM (inactive)	> 100 µM (inactive)	> 100 µM (inactive)	> 100 µM (inactive)	> 100 µM (inactive)	> 100 µM (inactive)	> 100 µM (inactive)	> 100 µM (inactive)	> 100 µM (inactive)	> 100	> 100 µM (inactive)	> 100 µM (inactive)	> 100 µM (inactive)	–	–
Cc1ccc(S(=O)(=O)SCc2ccccc2)cc1	4.31 µM (inactive)	> 92.5 µM (inactive)	14.3 µM (inactive)	15.3 µM (inactive)	50 µM (inactive)	2.33 µM (inactive)	17.9 µM (inactive)	21 µM (inactive)	27 µM (inactive)	27 µM (inactive)	7.91 µM (inactive)	22.7 µM (inactive)	43.8 µM (inactive)	14.3 µM (inactive)	14.1	28.5 µM (inactive)	2.32 µM (inactive)	18.9 µM (inactive)	–	–
C[C@]12CCC[C@H](OC=O)C1(O)C[C@H](C(=O)O)CC2 (some centres undefined)	> 100 µM (inactive)	> 100 µM (inactive)	> 100 µM (inactive)	> 100 µM (inactive)	> 100 µM (inactive)	> 100 µM (inactive)	> 100 µM (inactive)	> 100 µM (inactive)	> 100 µM (inactive)	> 100 µM (inactive)	> 100 µM (inactive)	> 100 µM (inactive)	19.8 µM (inactive)	> 100 µM (inactive)	> 100	> 100 µM (inactive)	> 100 µM (inactive)	> 100 µM (inactive)	–	–
O=C(O)CNCc1c2ccccc2nc2ccccc12	26.4 µM (inactive)	25.2 µM (inactive)	41 µM (inactive)	32.9 µM (inactive)	59.6 µM (inactive)	7.24 µM (inactive)	47.6 µM (inactive)	52.1 µM (inactive)	60 µM (inactive)	50.8 µM (inactive)	22 µM (inactive)	15.6 µM (inactive)	38.4 µM (inactive)	26.5 µM (inactive)	34.4	39.2 µM (inactive)	6.27 µM (inactive)	28.3 µM (inactive)	27.7 µM (inactive)	26.5 µM (inactive)
